According to ChEMBL document CHEMBL1201862, “PubChem BioAssay data set” (2004):
Several values for one entry are separate records, joined by “and”; a condition that tells them apart may be missing. Equal entries are not always repeated. Activity calls are given as the source filed them.

Experiments:
[1] = tested on: HEK293; assay: cells; settings: Homo sapiens
[2] = tested on: HEK293; assay: cells; settings: Homo sapiens; remark: listed apart in the source
[3] = molecular target: Keap1/Nrf2 (Homo sapiens, UniProt Q14145); assay: disruptors of Keap1 binding to Nrf2 peptide – biochemical, fluorescence polarization, cherry-picked samples, dose response (AID 588683)
[4] = molecular target: E3 ubiquitin-protein ligase Mdm2 (Homo sapiens, UniProt Q00987); assay: MDM2-luc reporter signal enhancers, multi-concentration potency testing, MDM2 ubiquitin-protein ligase inhibitor program, whole-cell format, luminescence detection, 384-well microplate (AID 1394); format: functional;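 further: MDM2 E3 inhibitors raise luminescence so EC50 is for signal enhancement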
[5] = molecular target: T1, Microphthalmia-associated transcription factor (Homo sapiens, UniProt O75030); assay: reducers of TRPM1 reporter luminescence, concentration series – cell-based, SK-MEL-5, cherry-picked, set 3, MITF inhibitor project, dose response (AID 493073); format: functional;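 further: SK-MEL-5 melanoma cells with luciferase driven by the MITF target TRPM1 promoter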
T1 sequence (O75030 whole entry): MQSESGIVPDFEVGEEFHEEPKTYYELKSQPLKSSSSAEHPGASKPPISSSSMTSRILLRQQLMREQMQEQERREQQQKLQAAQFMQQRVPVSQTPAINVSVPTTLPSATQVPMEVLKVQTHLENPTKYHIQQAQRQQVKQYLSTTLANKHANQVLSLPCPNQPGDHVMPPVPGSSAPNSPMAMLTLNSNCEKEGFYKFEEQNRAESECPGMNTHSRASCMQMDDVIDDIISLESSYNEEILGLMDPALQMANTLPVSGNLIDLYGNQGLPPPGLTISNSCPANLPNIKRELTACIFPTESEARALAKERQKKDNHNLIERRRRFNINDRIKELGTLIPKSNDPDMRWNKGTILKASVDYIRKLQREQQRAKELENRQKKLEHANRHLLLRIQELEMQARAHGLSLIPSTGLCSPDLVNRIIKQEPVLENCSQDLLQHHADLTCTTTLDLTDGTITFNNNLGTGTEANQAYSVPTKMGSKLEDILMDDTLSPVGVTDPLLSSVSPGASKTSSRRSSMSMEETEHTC

[6] = tested on: A-375; assay: proliferation inhibition in MITF-low A375 cells – cell-based, cherry-pick samples, set 2, counter-screen for MITF modulator project, dose response (AID 540335); format: functional; settings: Homo sapiens
[7] = blockers of HIV-1 envelope-mediated cell-cell fusion – cherry-pick, dose response (AID 652057); format: functional, cell-based
[8] = viability loss in CEM21 cells – cell-based, CellTiter-Glo luminescence, cherry-picked, cytotoxicity control for viral fusion inhibitor project, dose response (AID 652042); format: functional;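 further: potency for signal decrease meaning cytotoxicity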
[9] = blockers of HIV-1 ZM109 envelope-driven cell-cell fusion – HeLa effector, CEM target cells, luciferase, cherry-pick, dose response (AID 652058); format: functional, cell-based;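 further: luciferase signal from HIV-1 Env mediated cell-cell fusion of effector and target cells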
[10] = off-target signal loss in HeLa-CEM21 co-culture – HeLa F-luc CTL cells, cherry-picked, counter-screen for HIV-1 Env fusion inhibitor project, dose response (AID 652040); format: functional, cell-based;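 further: potency for signal decrease marking cytotoxic or nonspecific inhibition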
[11] = HIV-1 AD8 envelope cell-cell fusion blockers – cherry-pick, dose response (AID 652062); format: functional, cell-based;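 further: luciferase signal from cell-cell fusion driven by HIV-1 clade B AD8 Env; potency is for inhibitors of fusion seen as a drop in luminescence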
[12] = molecular target: T2, 14-3-3 protein gamma (Homo sapiens, UniProt P61981); assay: modulators of 14-3-3 gamma client binding – dose response (AID 711); format: functional
T2 sequence (P61981 whole entry): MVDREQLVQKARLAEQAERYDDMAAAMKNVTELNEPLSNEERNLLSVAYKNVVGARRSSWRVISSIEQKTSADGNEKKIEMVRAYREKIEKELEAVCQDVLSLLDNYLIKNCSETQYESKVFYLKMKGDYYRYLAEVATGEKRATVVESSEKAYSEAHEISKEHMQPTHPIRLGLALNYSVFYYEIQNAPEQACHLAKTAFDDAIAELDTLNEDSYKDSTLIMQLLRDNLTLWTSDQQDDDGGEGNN

[13] = molecular target: T3, ORF 73 (Human herpesvirus 8, UniProt O40947); assay: KSHV LANA DNA-binding disruption – biochemical, fluorescence polarization, cherry-picked samples, dose response (AID 504725); parameters: species or system Human gammaherpesvirus 8;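 further: fluorescence polarization of a labeled DNA duplex reporting LANA DNA binding; potency is for inhibitors that block LANA binding to the DNA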
T3 sequence (O40947 whole entry): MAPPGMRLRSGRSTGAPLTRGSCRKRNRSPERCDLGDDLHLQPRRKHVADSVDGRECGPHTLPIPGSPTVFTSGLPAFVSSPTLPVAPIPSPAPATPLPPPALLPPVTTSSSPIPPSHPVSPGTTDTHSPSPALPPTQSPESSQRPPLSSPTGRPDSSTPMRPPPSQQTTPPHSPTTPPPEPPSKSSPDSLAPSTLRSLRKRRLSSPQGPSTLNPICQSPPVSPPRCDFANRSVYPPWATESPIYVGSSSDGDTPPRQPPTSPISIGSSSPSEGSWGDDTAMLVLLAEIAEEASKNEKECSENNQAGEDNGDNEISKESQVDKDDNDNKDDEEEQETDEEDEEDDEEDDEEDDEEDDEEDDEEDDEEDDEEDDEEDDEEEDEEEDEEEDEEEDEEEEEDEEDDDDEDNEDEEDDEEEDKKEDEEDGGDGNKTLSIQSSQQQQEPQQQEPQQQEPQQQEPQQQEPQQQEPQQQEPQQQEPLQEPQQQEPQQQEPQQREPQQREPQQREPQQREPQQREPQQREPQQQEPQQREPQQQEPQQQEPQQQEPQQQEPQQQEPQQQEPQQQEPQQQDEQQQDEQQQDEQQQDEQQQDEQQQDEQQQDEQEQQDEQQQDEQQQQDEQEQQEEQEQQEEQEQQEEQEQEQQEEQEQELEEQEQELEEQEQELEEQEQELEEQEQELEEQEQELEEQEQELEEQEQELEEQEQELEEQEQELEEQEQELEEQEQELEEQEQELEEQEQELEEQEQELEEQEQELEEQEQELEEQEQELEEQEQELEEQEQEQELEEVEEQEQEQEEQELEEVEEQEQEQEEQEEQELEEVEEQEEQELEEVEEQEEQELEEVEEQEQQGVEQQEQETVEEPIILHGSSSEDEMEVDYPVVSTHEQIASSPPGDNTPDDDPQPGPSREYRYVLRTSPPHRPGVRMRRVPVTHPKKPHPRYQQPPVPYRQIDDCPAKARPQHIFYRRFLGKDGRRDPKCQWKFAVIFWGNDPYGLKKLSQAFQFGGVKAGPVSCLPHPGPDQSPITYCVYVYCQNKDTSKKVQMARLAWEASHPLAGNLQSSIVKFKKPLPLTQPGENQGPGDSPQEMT

[14] = molecular target: T4, Mannose-6-phosphate isomerase (Homo sapiens, UniProt P34949); assay: phosphomannose isomerase inhibition – biochemical, fluorescence intensity, confirmation (AID 1535)
T4 sequence (P34949 whole entry): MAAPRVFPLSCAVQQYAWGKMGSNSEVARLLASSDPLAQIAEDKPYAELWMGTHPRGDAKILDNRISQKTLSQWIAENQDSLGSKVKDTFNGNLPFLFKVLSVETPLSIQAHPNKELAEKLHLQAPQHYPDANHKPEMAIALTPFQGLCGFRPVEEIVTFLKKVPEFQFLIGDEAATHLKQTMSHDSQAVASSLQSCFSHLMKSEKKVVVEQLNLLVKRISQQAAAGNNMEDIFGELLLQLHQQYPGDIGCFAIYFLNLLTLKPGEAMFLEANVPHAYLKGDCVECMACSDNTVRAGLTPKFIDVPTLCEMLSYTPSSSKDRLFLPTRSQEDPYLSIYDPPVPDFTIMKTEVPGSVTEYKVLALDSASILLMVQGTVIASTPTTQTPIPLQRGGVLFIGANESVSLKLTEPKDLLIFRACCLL

[15] = molecular target: T5, Phosphomannomutase 2 (Homo sapiens, UniProt O15305); assay: Counter screen SAR assay for PMM2 inhibitors via a fluorescence intensity assay. [Related pubchem assays (depositor defined):AID1545, AID1574]
T5 sequence (O15305 whole entry): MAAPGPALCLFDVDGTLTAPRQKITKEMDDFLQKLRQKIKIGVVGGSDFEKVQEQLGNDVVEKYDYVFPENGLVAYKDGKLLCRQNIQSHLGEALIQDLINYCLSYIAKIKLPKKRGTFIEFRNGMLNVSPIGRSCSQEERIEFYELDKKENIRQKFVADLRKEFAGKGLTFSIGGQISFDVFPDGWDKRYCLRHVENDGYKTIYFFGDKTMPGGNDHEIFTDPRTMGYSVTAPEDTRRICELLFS

[16] = viability of PTEN-deleted HCT116 cells – cell-based, HCT116 PTEN knockout, dose response (AID 1047); format: functional;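 further: HCT116 colon tumor cells with PTEN knocked out; cells exposed to compound for 60 hours before readout; potency for loss of cell viability measured by luminescence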
[17] = viability of HCT116 lacking mutant beta-catenin – cell-based, human colon tumor, dose response (AID 1045); format: functional;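 further: HCT116 colon tumor cells with beta catenin knocked out; cells exposed to compound for 60 hours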
[18] = THP-1 cell cytotoxicity, dose response, cytotoxicity control for non-replicating M. tuberculosis project (AID 489025); format: functional
[19] = molecular target: T6, Ubiquitin-conjugating enzyme E2 N (Homo sapiens, UniProt P61088); format: functional;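 further: Dose-response confirmation in a TR-FRET assay detecting UBC13-driven polyubiquitin chain formation, inhibition measured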
T6 sequence (P61088 whole entry): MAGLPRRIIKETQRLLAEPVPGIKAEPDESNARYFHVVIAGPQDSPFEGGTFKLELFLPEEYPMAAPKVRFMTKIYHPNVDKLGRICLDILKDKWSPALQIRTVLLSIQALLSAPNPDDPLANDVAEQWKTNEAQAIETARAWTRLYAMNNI

[20] = Vero E6 cell cytotoxicity, dose response, cytotoxicity control for non-replicating M. tuberculosis project, secondary assay (AID 492998); format: functional, VeroE6; settings: Vero C1008
[21] = cells; format: functional
[22] = molecular target: T7, Estrogen receptor (Homo sapiens, UniProt P03372);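 further: potency for inhibiting coactivator peptide recruitment to the receptor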
T7 sequence (P03372 whole entry): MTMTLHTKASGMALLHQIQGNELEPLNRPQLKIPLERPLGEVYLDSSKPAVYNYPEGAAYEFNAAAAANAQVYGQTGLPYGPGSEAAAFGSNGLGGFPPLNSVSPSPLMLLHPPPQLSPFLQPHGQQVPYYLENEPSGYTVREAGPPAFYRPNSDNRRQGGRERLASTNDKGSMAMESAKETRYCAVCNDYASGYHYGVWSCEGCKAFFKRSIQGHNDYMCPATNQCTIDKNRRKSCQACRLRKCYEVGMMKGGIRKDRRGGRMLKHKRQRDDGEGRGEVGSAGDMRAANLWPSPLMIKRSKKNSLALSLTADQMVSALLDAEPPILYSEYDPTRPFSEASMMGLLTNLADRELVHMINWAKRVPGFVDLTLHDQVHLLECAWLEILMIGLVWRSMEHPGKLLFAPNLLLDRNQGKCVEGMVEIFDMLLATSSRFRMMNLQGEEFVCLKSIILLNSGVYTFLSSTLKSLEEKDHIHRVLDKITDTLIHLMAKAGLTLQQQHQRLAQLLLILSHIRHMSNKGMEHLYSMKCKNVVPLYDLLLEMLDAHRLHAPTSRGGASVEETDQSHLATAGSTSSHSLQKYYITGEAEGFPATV

[23] = molecular target: T8, Coagulation factor XII (Homo sapiens, UniProt P00748); format: functional;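 further: activated factor XIIa alpha cleaving a fluorogenic AMC peptide substrate; inhibitor potency from loss of enzyme activity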
T8 sequence (P00748 whole entry): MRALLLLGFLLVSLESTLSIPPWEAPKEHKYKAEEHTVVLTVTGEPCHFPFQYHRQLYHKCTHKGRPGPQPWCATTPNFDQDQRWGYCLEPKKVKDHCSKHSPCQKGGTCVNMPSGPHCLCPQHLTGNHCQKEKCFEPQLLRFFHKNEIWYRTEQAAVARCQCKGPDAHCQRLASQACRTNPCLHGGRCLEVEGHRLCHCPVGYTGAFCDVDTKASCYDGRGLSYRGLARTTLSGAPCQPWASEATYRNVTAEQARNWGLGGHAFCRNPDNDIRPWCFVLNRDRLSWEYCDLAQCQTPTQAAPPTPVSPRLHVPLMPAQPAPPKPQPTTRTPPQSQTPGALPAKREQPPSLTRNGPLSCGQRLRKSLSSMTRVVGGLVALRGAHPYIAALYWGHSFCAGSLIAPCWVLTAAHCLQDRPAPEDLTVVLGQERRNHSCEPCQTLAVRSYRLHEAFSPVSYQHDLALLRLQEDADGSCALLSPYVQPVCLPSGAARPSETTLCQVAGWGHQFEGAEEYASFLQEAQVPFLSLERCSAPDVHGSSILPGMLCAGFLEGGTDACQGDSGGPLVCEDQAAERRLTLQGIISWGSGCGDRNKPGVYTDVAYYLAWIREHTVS

Keap1/Nrf2, sequence (Q16236 whole entry): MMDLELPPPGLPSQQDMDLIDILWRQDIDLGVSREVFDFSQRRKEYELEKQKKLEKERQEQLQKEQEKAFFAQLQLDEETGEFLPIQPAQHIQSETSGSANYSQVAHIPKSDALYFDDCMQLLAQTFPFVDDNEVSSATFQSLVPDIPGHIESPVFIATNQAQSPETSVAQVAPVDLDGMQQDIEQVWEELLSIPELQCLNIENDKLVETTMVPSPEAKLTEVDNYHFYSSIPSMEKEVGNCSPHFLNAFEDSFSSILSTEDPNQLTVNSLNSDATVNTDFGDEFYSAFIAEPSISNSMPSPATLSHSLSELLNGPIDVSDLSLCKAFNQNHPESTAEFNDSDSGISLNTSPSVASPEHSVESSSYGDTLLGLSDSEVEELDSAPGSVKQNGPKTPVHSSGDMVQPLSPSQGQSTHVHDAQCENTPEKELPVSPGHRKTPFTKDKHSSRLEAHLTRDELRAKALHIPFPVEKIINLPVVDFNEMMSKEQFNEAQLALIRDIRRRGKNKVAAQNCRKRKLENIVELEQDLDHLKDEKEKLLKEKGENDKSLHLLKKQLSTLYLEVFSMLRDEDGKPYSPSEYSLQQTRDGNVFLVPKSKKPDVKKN
Keap1/Nrf2, sequence (Q14145 whole entry): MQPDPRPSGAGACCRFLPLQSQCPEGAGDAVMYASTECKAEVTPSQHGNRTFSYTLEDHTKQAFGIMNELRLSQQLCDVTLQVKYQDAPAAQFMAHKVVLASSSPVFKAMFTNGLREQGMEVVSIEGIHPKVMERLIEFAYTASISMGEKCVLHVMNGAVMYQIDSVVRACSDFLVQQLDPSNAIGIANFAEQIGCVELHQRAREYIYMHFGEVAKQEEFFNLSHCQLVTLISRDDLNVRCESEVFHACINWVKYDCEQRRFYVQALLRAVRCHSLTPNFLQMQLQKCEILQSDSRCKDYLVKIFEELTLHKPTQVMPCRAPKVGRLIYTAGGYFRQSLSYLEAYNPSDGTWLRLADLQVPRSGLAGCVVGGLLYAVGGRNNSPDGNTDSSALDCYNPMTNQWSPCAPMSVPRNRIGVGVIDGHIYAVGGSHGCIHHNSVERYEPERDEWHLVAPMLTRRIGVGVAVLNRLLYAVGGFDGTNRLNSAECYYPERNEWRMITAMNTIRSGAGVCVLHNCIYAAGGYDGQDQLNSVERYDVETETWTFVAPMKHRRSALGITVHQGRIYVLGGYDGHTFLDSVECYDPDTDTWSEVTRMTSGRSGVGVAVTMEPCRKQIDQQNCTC
E3 ubiquitin-protein ligase Mdm2, sequence (Q00987 whole entry): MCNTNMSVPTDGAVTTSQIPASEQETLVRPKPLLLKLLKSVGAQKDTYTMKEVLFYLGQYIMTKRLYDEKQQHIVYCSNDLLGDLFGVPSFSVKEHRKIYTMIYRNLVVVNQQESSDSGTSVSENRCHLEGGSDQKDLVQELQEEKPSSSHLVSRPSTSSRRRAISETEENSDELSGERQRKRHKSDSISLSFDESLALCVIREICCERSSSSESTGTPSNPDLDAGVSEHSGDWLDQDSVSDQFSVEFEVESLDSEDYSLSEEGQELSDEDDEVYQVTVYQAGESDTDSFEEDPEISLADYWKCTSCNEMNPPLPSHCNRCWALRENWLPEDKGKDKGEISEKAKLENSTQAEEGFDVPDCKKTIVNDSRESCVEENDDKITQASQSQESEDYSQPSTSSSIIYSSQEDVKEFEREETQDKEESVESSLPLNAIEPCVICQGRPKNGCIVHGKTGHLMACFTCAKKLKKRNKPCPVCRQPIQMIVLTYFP

## COc1ccc(C2CC(C(F)(F)F)n3ncc(C(=O)NCC4CCCO4)c3N2)cc1OC (centres undefined)
[1]
  EC50: > 59.6 µM (inactive)
[2]
  EC50: > 59.6 µM (inactive)

## c1ccc2c(c1)CCCN2Cc1nnnn1CC1CCCO1 (centres undefined)
[3]
  AC50: > 52 µM (inactive)

## O=C1NC(=O)N(CCc2ccc(F)cc2)C(=O)/C1=C\C=C\c1ccccc1
[4]
  EC50: 0.13 µM (not active)
[5]
  AC50: 8.26 µM (active)
[6]
  AC50: 33.6 µM (active)

## COc1ccc(CC(N)c2csc(NC(=O)Nc3ccccc3Cc3ccccc3)n2)cc1 (centres undefined)
[7]
  AC50: < 0.26 µM (active)
[8]
  AC50: 12.4 µM (active)
[9]
  AC50: 0.304 µM (active)
[10]
  AC50: 0.381 µM (active)
[11]
  AC50: 0.832 µM (active)
[1]
  EC50: > 59.7 µM (inactive)
[2]
  EC50: > 59.7 µM (inactive)

## O=C(O)c1ccccc1C1=Nc2ccc(O)cc2Oc2cc(O)ccc21
[12]
  IC50: 5.02 µM (active)
[13]
  AC50: 5.76 µM (active)
[3]
  AC50: 4.97 µM (active)

## Clc1nss/c1=N\c1cccnc1
[14]
  IC50: 16.7 µM (active) and 13.2 µM (active)
[15]
  IC50: > 65.8 µM (active)

## Cc1ccc2nc(N(CCCN(C)C)C(=O)c3ccc4c(c3)CCCC4)sc2c1
[16]
  EC50: 15.2 µM (active)
[17]
  EC50: 12.1 µM (active)
[18]
  CC50: 16.5 µM (active)
[19]
  IC50: > 20 µM (inactive)
[20]
  CC50: > 20 µM (active)
[21]
  IC50: 22.8 µM (active)
[6]
  AC50: 19.7 µM (active)

## Cc1ccc(N/C=C2/C(=O)N(c3ccc4c(c3)OCO4)C(=O)c3ccccc32)cc1
[22]
  IC50: 19.8 µM (active)
[16]
  EC50: 8.15 µM (active)
[17]
  EC50: 9.32 µM (active)
[23]
  IC50: > 50 µM (inactive)
